Results: ChEMBL document CHEMBL3352297, “Structure based virtual screening of MDPI database: discovery of structurally diverse and novel DPP-IV inhibitors” (Bioorg Med Chem Lett, 2014)
Active and inactive are the calls of the source. The calls are words filed in the database; no cut-off is given here.

Columns and labels:
[1] = system: Rattus norvegicus; assay: Suppression of blood glucose level in Wistar rat at 30 mg/kg, po measured 30 to 120 mins post dextrose challenge by oral glucose tolerance test; assay type: functional, organism-based; design: dose 30 mg/kg
[2] = target: Dipeptidyl peptidase 4 (Homo sapiens, UniProt P27487); assay: Inhibition of human DPP-4 using H-Gly-Pro-para-Nitroanilide as substrate incubated for 20 mins prior to substrate addition measured after 30 mins by spectrophotometry
Chain of Dipeptidyl peptidase 4 (P27487 whole entry): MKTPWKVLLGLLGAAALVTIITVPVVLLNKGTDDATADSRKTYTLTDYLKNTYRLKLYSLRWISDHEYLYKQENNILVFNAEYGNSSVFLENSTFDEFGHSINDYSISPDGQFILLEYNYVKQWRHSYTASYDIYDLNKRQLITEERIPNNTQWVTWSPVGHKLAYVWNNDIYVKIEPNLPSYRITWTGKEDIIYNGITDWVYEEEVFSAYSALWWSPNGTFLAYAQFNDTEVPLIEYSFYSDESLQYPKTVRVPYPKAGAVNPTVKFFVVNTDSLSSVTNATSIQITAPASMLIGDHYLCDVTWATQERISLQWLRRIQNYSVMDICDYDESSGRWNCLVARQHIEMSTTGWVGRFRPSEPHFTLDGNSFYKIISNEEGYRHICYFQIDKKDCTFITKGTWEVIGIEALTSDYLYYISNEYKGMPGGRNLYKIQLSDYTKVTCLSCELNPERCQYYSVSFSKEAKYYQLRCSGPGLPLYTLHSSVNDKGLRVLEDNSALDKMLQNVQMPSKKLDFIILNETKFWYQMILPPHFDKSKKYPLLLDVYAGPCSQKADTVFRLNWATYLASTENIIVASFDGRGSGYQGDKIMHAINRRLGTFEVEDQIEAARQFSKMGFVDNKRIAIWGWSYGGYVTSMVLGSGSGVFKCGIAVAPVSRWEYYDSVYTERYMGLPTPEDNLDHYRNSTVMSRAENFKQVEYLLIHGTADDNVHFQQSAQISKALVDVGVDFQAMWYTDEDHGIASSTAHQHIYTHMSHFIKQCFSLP

Row | Compound | IC50 ([2]; read-out: IC50) | IC50 [2] | Activity [1]
1 | 2,2-diphenylethanaminium tetrachloroaurate |  |  | Active
2 | N=CC(C(=O)c1ccccc1)c1ccccc1 (stereo not drawn) | > 100000 nM |  | 
3 | Cc1ccc(=N)n(Cc2cccc(F)c2)c1 | 34600 nM |  | 

More lines, main results first:

Row | IC50 ([2]; read-out: IC50) | IC50 [2] | Compound | Activity [1]
4 | 2950 nM |  | CCn1c(=O)c(C(C)(NN)Nc2ccc(C)cc2)c(O)c2ccccc21 (stereo not drawn) | Active
5 |  | ND(Insoluble) | CN(C)c1ccc(C(N)CC(=O)c2c(O)c3ccccc3n(C)c2=O)cc1 (stereo not drawn) | 
6 | 730 nM |  | Cn1c(=O)c(C(C)(NN)Nc2ccccc2)c(O)c2ccccc21 (stereo not drawn) | Active
